{
  "source": "patent US20110313164A1",
  "about": "“LITHIUM DERIVATIVES OF PYRROLOQUINOLINE QUINONE AND PREPARATION METHOD THEREOF” (priority 2009, published 2011)",
  "test_system": "APP/PSI transgenic mice",
  "test": "cognitive ability of APP/PSI transgenic mice (FIG. 1)",
  "type": "in vivo",
  "conditions": "intragastric administration, 20-week-old mice, 1.5 and 6 mg/kg of weight",
  "procedure": "Intragastric administration is applied to 20-week-old mice. Wiletype is a wiletype control group; Ctrl is a transgenic control group; DNP is a […] group (1.5 mg/kg of weight); PQQLi 1.5 is a lithium pyrroloquinoline-quinone salt group (1.5 mg/kg of weight); PQQLi 6 is a lithium pyrroloquinoline-quinone group (6 mg/kg of weight). *p<0.05; ** p<0.005; NS: […].",
  "data": [
    {"smiles": "O=C(O)c1cc(C(=O)O)c2c(n1)C(=O)C(=O)c1cc(C(=O)[O-])[nH]c1-2.[Li+]", "note": "[PQQLi, 4,5-dihydroxy-1H-pyrrole[2,3-f]chinoline-2,7,9-tricarboxylic acid, lithium salt]", "values": [
      {"measurement": "cognitive ability", "result": "promotes the cognitive ability"}
    ]}
  ]
}
